Results as given in patent US8273375B2, “Multiparticle pharmaceutical dosage form for a low-soluble active substances and method for producing said pharmaceutical dosage form” (Evonik Roehm GmbH, priority 2004, dated 2012).
≈ marks a conversion by molar mass, not a printed value.

Assay: physchem
Conditions: for solubility: water
Method: The lipophilic matrix may consist of a single substance, e.g. a lipid, or of a mixture of substances, e.g. a mixture of lipids. In the case of mixtures, the DAB 10 water-solubility properties, the partition coefficients and the HLB values specified below are calculated from the arithmetic mean of the corresponding values of the substances and from their amounts in parts by weight. The substances used here must not be toxic.
The water-solubility of the active substance and the substance or substances forming the lipophilic matrix can be defined as described in DAD 10 German Pharmacopeia 10th ed. with 3rd suppl. 1994, published by Deutscher Apothekerverlag [=German Pharmacologic Publishing House], Stuttgart and by Govi Verlag, Frankfurt am Main, 2nd suppl. 1993, see Section IV “Allgemeine Vorschriften” [=General Methods] on pages 5 and 6, entitled “Löslichkeit und Lösungsmittell” [=Solubility and Solvents]; see also Ph. Eur. 4.07, 2004). The solubility is given here by the number of parts by volume of a solvent needed to dissolve 1 part by weight of the substance, such as a drug. “Low solubility” applies to substances that need 30-100 parts by volume of solvent to dissolve 1 part by weight of the substance or drug in question, while the terms “very low solubility”, “sparingly soluble” and “difficultly soluble” apply to substances that need 100-1000 parts by volume of a solvent to dissolve 1 part by weight of the substance or drug in question.

## CN(CCOc1ccc(CC2SC(=O)NC2=O)cc1)c1ccccn1 (stereo not shown) [Rosiglitazone]
  Water solubility according to DAB 10: parts of water needed to dissolve 1 part of the active substance: at least 1000 parts of water
  solubility: 1000 µg/mL (≈ 2800 µM)

## NC(=O)N1c2ccccc2CC(=O)c2ccccc21 [Oxcarbazepine]
  Water solubility according to DAB 10: parts of water needed to dissolve 1 part of the active substance: at least 10,000 parts of water
  solubility: 100 µg/mL (≈ 396 µM)
